Our source for the melting point values is a melting point compilation (Tetko et al.; mined from patent text by program, amines drawn as free bases though some values may be those of a salt).

In general, melting point refers to the temperature, or range, at which the solid turns liquid.

Molecules are shown by their SMILES.

On to `O=C1CC(O)CN1S(=O)(=O)c1ccc(N2CCCCC2)cc1` (stereo not given), for which the melting point lay within 158 to 159 °C. With `CC1(OCc2ccccc2)CCCC(C)(C(=O)Nc2ccccc2)O1` (stereo not given) the figure was 55 to 56 °C. The result for `O=Cc1ccc(OCc2ccc3ccccc3c2)cc1` reads 103 to 109 °C. Turning to `CC(=O)OC1CSC(Oc2ccc3nnn(C)c3c2)C(OC(C)=O)C1OC(C)=O` (stereo not given), the melting point turned out to be 143 °C. The result for `CCOC(=O)Cc1csc(NC(=O)C(N)Cc2ccc(F)cc2)n1` (stereo not given) reads 124 to 127 °C. The result for `O=C(c1cn(-c2cccc(-c3ccccc3)c2)cn1)n1cccn1` reads 124 to 127 °C. The result for `CC#CN1N=C(c2ccc(F)cc2)c2cc(Cl)ccc2CS1(=O)=O` reads 139 to 140 °C; that for `Cc1ccc(NC(=O)N2CCN(C(=O)c3ccc(Nc4ccnc5cc(C(F)(F)F)ccc45)cc3)CC2)cc1`, 280 to 282 °C. As to `CC(C)n1nc(-c2cc(-c3ncnn3C)c(N)nc2-c2ccccc2)ccc1=O`, the melting point is 253 to 254 °C.

Consider `CCC1(CC)c2cc(-c3nc4ccccc4s3)ccc2-c2ccc(N(c3ccc(Oc4ccc([N+](=O)[O-])cc4)cc3)c3ccc(Oc4ccc([N+](=O)[O-])cc4)cc3)cc21`, for which the melting point lay within 223 to 225 °C. With `CC(=O)NCc1ccc(CN2CCN(c3ccc(F)cc3N)CC2)cc1` the figure was 139 to 140 °C; with `Nc1ncnc2c1c(-c1cc(O)cc(F)c1)nn2Cc1oc2cccc(F)c2c(=O)c1-c1cccc(F)c1`, 136 to 138 °C.

On to `COc1ncc(S(C)(=O)=O)cc1CCC(=O)c1ccc(Cl)c(Cl)c1`, for which the melting point lay in the range of 145 to 146 °C. With `COC(=O)c1cccc(C=C(C)[N+](=O)[O-])c1O`, the melting point was in the range of 119 to 121 °C. The result for `O=[N+]([O-])c1cccc2cc(O)c(O)cc12` reads 199 to 201 °C.

`Cc1c(Cl)ccc(S(=O)(=O)N(CCc2ccccc2)CC(=O)NCC(=O)O)c1Cl` yielded a melting point of 110 °C.

`FC(F)(F)Oc1ccc(Nc2cc(N3CCOCC3)nc(-c3ccccc3)n2)cc1` gave a melting point of 144 to 146 °C. The result for `CCOCC(=NO)C(C)(C)NCC(Cn1ccnc1[N+](=O)[O-])ONC(C)(C)C(CCn1ccnc1[N+](=O)[O-])=NO` (stereo not given) reads 105 to 107 °C.

With `COC(=O)NN(C(=O)Cl)c1cccc2c1OCC2`, the melting point fell in the range of 110 to 112 °C. For the compound `Cc1cc(C(=O)Nc2ccccc2O)cc(Cl)c1O`, the melting point lay within 192 to 194 °C.

In turn, `Fc1ccc([C@@]2(Cn3nc[nH]c3=S)O[C@@H]2c2ccccc2C(F)(F)F)cc1F` (relative stereo) had a melting point of 143 to 146 °C. The compound `CC(C)Cn1c(=O)n(C)c(=O)c2c(C/C=C/CC(=O)O)n(Cc3cccc4ccccc34)cc21` returned a melting point of 176 to 180 °C.

Compound `CNC(=O)c1cc(NC(=O)c2ccc(C)c(Nc3nccc(-c4cccnc4)n3)c2)cc(C(F)(F)F)c1` yielded a melting point of 245 to 249 °C. Take `O=C(O)COc1cccc2c1CCc1sc(Cc3ccccc3)nc1-2`: the melting point fell in the range of 146 to 149 °C. The result for `Cc1c(C)c2c(c3c1NCC3)CC(C)(C)O2` reads 107 to 109 °C. With `NC(=O)N1CCN(c2nn(-c3ccc(F)cc3)c3ccccc23)CC1` the figure was 148 to 150 °C; with `CS(=O)(=O)c1ccc(-c2cnn(CC(=O)c3ccc(C(=O)O)cc3)c(=O)c2-c2ccc(F)cc2)cc1`, 239 to 241 °C; with `CC(=O)c1ccc2c(c1)Sc1cc(C(C)=O)c(Cl)cc1N2C`, 185 °C. `COC(=O)C1(CN2CCC(Cc3ccc(F)cc3)CC2)CC(c2ccc3[nH]c(=O)oc3c2)=NO1` (stereo not given) had a melting point of 146 to 155 °C. With `CSc1ccc(-c2nn(Cc3ccc(Cl)cc3Cl)c(=O)cc2-c2ccc(Cl)cc2)cc1` the figure was 154 to 155 °C; with `CS(=O)(=O)c1c(O)c2cccnc2n(Cc2ccccc2)c1=O`, 155 °C. With `N#Cc1cccc(NC(=O)Nc2ccc(-n3nc(C(F)(F)F)cc3C(F)(F)F)cc2)c1` the figure was 204 to 205 °C. The result for `CCCc1nc2c(N)nc3ccccc3c2n1CCOCCCS(=O)(=O)C(C)C` reads 176 to 177 °C; that for `COCC1CN(c2ccc(C3CCC4(CC3)OCCO4)nc2)C(=O)O1` (racemic), 93 to 94 °C. Regarding `N#Cc1ccc(-c2ccc3nc(-c4ccc(C#N)cc4)cn3c2)cc1`, the melting point was 292 to 294 °C. For `O=C(c1ccccc1Cl)c1cc(Cl)ccc1I`, the melting point lay in the range of 64 to 66 °C. With `COc1ccc(/C(=C\C=C\C(=O)Oc2ccc([N+](=O)[O-])cc2)c2cccnc2)cc1` the figure was 54 to 56 °C; with `N#Cc1cccc2nnsc12`, 114 to 117 °C. The compound `Cc1cc(N2CCN(CC(=O)c3ccc(NS(C)(=O)=O)cc3)CC2)ccn1` gave a melting point of 93 to 94 °C.

Turning to `Cc1c(C(=O)OCc2ccc(Cl)cc2)oc2cccc(O)c12`, the melting point was 202 to 204 °C.

As to `CNC(=O)Nc1coc2ccccc2c1=O`, the melting point came to 254 °C. The result for `CC#CCOc1ccc(S(=O)(=O)C(C(=O)NO)c2cccc3ccccc23)cc1` (stereo not given) reads 213 °C. With `COc1ccc(C(=NOC(C)=O)c2cc(F)ccc2F)c(O)c1Cl` the figure was 130 to 131 °C; with `CN(CCOc1ccc(CC(Oc2ccc(Cl)cc2)C(=O)O)cc1)c1nc2ccccc2o1` (stereo not given), 164 to 165 °C; with `COC1=Cc2ccc(Cl)cc2C(O)(C2CCN(C)CC2)c2ccsc21` (stereo not given), 200 to 202 °C.

As for `O=[N+]([O-])c1ccc2[nH]cc(Cc3cccnc3)c2c1`, the melting point was in the range of 154 to 156 °C. With `O=C1CCN(Cc2ccc(O)cc2)CC1C1c2ccccc2C=Cc2ccccc21` (stereo not given) the figure was 156 to 157 °C; with `Cc1nc2cccc(OCC(C)(C)C(=O)NC3CC3)c2c(N)c1C(=O)O`, 227 to 229 °C. The result for `Nc1ccc2c(c1)CCc1cc(=O)[nH]nc1-2` reads 290 to 292 °C; that for `CCCn1c(=O)c2c(nc(C3CCC(=O)C3)n2Cc2ccccc2)n(CCC)c1=O` (stereo not given), 145 °C.

Consider `CC(=C1SC(=O)NC1=O)c1ccc(OCCOc2c(-c3ccc(Cl)cc3)n(C)c3ccccc3c2=O)cc1`, for which the melting point is 238 to 240 °C.

`Cc1c(O)noc1C(=O)O`: the melting point lay within 257 to 259 °C. With `Cc1nn(-c2ccccn2)c2[nH]c3ccc(S(C)=O)cc3c(=O)c12` (stereo not given) the figure was 268 to 269 °C; with `CCC1CCC2C3CC=C4CCCCC4(C)C3CCC12C` (stereo not given), 104 to 106 °C. With `CCOC(=O)C1=C(C)NC(C(OCC)OCC)=C(C(=O)OCC)C1c1cc([N+](=O)[O-])ccc1Cl` (stereo not given) the figure was 117 to 118 °C. With `c1ccc2c(c1)CC1(CCNCC1)O2` the figure was 56 to 58.5 °C; with `CSC(SC)=C(C(O)C(C)(C)C)n1cncn1` (stereo not given), 108 to 111 °C. In the case of `O=C1C=CC(=O)N1c1ccc([N+](=O)[O-])cc1`, the melting point was in the range of 163 to 165 °C. For the compound `CCOc1ccc(OCC(=O)OC(C)(C)C)c2c1C(=O)N(CSc1nnnn1-c1ccccc1)S2(=O)=O`, the melting point was 110 to 112 °C.

`Cc1oc(-c2ccco2)nc1COc1ccc(CCl)cc1Br`: the melting point was in the range of 125 to 126 °C.
